According to patent US9776997B2, “3-aryl-substituted imidazo[1,2-A]pyridines and their use” (Bayer Pharma Aktiengesellschaft, priority 2013, dated 2017):

Molecular target: T1, recombinant guanylate cyclase reporter cell line (Rattus norvegicus, UniProt P19686+P20595)
T1 construct: expressed in transfected cells; host or cells: recombinant reporter cell line
T1 sequence (P19686 1-690): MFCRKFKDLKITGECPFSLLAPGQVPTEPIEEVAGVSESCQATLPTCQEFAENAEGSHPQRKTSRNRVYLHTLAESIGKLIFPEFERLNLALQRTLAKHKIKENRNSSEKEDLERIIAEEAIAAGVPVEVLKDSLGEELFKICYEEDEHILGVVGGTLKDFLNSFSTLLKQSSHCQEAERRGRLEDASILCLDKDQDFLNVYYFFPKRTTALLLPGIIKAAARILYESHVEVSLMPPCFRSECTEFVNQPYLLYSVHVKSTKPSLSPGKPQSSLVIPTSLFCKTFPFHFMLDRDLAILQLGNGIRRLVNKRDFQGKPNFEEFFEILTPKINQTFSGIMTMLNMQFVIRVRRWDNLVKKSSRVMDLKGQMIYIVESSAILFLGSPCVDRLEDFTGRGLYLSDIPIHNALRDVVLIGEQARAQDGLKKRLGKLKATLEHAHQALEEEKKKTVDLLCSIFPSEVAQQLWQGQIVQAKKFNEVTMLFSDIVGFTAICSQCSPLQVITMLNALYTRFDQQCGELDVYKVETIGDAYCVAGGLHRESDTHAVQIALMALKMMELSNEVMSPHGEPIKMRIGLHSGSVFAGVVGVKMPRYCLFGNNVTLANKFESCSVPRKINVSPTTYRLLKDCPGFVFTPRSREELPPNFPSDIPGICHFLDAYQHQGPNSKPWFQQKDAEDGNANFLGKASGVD
T1 sequence (P20595 1-619): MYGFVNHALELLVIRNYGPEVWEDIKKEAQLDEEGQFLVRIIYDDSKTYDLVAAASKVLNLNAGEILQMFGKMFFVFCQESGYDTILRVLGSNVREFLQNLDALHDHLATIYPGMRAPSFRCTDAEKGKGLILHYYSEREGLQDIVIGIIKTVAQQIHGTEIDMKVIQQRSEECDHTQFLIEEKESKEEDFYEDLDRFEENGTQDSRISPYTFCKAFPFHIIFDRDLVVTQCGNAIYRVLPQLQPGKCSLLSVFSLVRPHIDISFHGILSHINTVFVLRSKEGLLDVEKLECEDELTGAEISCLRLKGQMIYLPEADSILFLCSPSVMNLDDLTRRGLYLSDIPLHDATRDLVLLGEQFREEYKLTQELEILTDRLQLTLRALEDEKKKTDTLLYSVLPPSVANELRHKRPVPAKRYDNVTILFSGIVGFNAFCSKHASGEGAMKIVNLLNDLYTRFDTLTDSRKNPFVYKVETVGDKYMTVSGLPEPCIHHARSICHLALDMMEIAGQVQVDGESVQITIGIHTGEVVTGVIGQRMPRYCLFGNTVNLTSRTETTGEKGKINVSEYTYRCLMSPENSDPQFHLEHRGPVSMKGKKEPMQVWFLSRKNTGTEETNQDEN
Assay: Effect on a recombinant guanylate cyclase reporter cell line
Format: cell-based
Details: MEC = minimum effective concentration; in some cases mean values for individual determinations
Experimental: B-2. Effect on a Recombinant Guanylate Cyclase Reporter Cell Line
The cellular effect of the inventive compounds is determined using a recombinant guanylate cyclase reporter cell line, as described in F. Wunder et al., Anal. Biochem. 339, 104-112 (2005).
Representative MEC values (MEC=minimum effective concentration) for the inventive compounds are shown in the table below (in some cases as mean values for individual determinations): […]

Row | Compound | MEC [µM]
1 | Cc1cc(OCc2c(F)cccc2F)c2nc(C)c(-c3cnn(C(C)CC(=O)O)c3)n2c1 (racemic) [Example 110, rac-3-(4-{8-[(2,6-difluorobenzyl)oxy]-2,6-dimethylimidazo[1,2-a]pyridin-3-yl}-1H-pyrazol-1-yl)butanoic acid] | 1.0
2 | CCN(CC)CCNC(=O)CC(C)n1cc(-c2c(C)nc3c(OCc4c(F)cccc4F)cc(C)cn23)cn1 (racemic) [Example 112, rac-N-[2-(Diethylamino)ethyl]-3-(4-{8-[(2,6-difluorobenzyl)oxy]-2,6-dimethylimidazo[1,2-a]pyridin-3-yl}-1H-pyrazol-1-yl)butanamide] | 1.0
3 | Cc1nc2c(OCc3c(F)cccc3F)cccn2c1-c1cnn(Cc2ccccc2)c1 [Example 1, 3-(1-Benzyl-1H-pyrazol-4-yl)-8-[(2,6-difluorobenzyl)oxy]-2-methylimidazo[1,2-a]pyridine] | 0.065
4 | Cc1nc2c(OCc3c(F)cccc3F)cccn2c1-c1ccc(C(=O)NC2CC2)cc1 [Example 9, N-cyclopropyl-4-{8-[(2,6-difluorobenzyl)oxy]-2-methylimidazo[1,2-a]pyridin-3-yl}benzamide] | 0.3
5 | CCOc1ccc(-c2c(C)nc3c(OCc4c(F)cccc4F)cccn23)cc1 [Example 10, 8-[(2,6-difluorobenzyl)oxy]-3-(4-ethoxyphenyl)-2-methylimidazo[1,2-a]pyridine] | 1.0
6 | Cc1nc2c(OCc3c(F)cccc3F)cccn2c1-c1ccnn1C [Example 11, 8-[(2,6-difluorobenzyl)oxy]-2-methyl-3-(1-methyl-1H-pyrazol-5-yl)imidazo[1,2-a]pyridine] | 3.0
7 | Cc1cc(-c2c(C)nc3c(OCc4c(F)cccc4F)cccn23)cnc1Cl [Example 12, 3-(6-chloro-5-methylpyridin-3-yl)-8-[(2,6-difluorobenzyl)oxy]-2-methylimidazo[1,2-a]pyridine] | 0.1
8 | Cc1nc2c(OCc3c(F)cccc3F)cccn2c1-c1ccsc1 [Example 14, 8-[(2,6-difluorobenzyl)oxy]-2-methyl-3-(3-thienyl)imidazo[1,2-a]pyridine] | 0.3
9 | Cc1nc2c(OCc3c(F)cccc3F)cccn2c1-c1cccc(CN2CCCC2)c1 [Example 15, 8-[(2,6-difluorobenzyl)oxy]-2-methyl-3-[3-(pyrrolidin-1-ylmethyl)phenyl]imidazo[1,2-a]pyridine] | 0.065
10 | Cc1nc2c(OCc3c(F)cccc3F)cccn2c1-c1ccc(F)cc1 [Example 16, 8-[(2,6-difluorobenzyl)oxy]-3-(4-fluorophenyl)-2-methylimidazo[1,2-a]pyridine] | 1.0
11 | Cc1nc2c(OCc3c(F)cccc3F)cccn2c1-c1ccc(C#N)cc1 [Example 17, 4-{8-[(2,6-difluorobenzyl)oxy]-2-methylimidazo[1,2-a]pyridin-3-yl}benzonitrile] | 1.0
12 | Cc1nc2c(OCc3c(F)cccc3F)cccn2c1-c1cnc2ccccc2c1 [Example 19, 3-{8-[(2,6-difluorobenzyl)oxy]-2-methylimidazo[1,2-a]pyridin-3-yl}quinoline] | 1.0
13 | Cc1nc2c(OCc3c(F)cccc3F)cccn2c1-c1cccc(CN2CCOCC2)c1 [Example 21, 8-[(2,6-difluorobenzyl)oxy]-2-methyl-3-[3-(morpholin-4-ylmethyl)phenyl]imidazo[1,2-a]pyridine] | 1.0
14 | CCCOc1ccc(-c2c(C)nc3c(OCc4c(F)cccc4F)cccn23)cn1 [Example 22, 8-[(2,6-difluorobenzyl)oxy]-2-methyl-3-(6-propoxypyridin-3-yl)imidazo[1,2-a]pyridine] | 1.0
15 | Cc1nc2c(OCc3c(F)cccc3F)cccn2c1-c1ccc2c(c1)COC2=O [Example 23, 5-{8-[(2,6-difluorobenzyl)oxy]-2-methylimidazo[1,2-a]pyridin-3-yl}-2-benzofuran-1(3H)-one] | 1.0
16 | COc1ccc(-c2c(C)nc3c(OCc4c(F)cccc4F)cccn23)cc1 [Example 25, 8-[(2,6-difluorobenzyl)oxy]-3-(4-methoxyphenyl)-2-methylimidazo[1,2-a]pyridine] | 1.0
17 | Cc1nc2c(OCc3c(F)cccc3F)cccn2c1-c1ccc(CN(C)C)cc1 [Example 26, 1-(4-{8-[(2,6-difluorobenzyl)oxy]-2-methylimidazo[1,2-a]pyridin-3-yl}phenyl)-N,N-dimethylmethanamine] | 1.0
18 | COCCN(C)Cc1cc(-c2c(C)nc3c(OCc4c(F)cccc4F)cccn23)ccc1OC [Example 27, N-(5-{8-[(2,6-difluorobenzyl)oxy]-2-methylimidazo[1,2-a]pyridin-3-yl}-2-methoxybenzyl)-2-methoxy-N-methylethanamine] | 1.0
19 | CCN(C)Cc1ccc(OC)c(-c2c(C)nc3c(OCc4c(F)cccc4F)cccn23)c1 [Example 28, N-(3-{8-[(2,6-difluorobenzyl)oxy]-2-methylimidazo[1,2-a]pyridin-3-yl}-4-methoxybenzyl)-N-methylethanamine] | 1.0

More lines, now with the values ahead:

Row | MEC [µM] | Compound
20 | 0.1 | CC(=O)c1cccc(-c2c(C)nc3c(OCc4c(F)cccc4F)cccn23)c1 [Example 2, 1-(3-{8-[(2,6-difluorobenzyl)oxy]-2-methylimidazo[1,2-a]pyridin-3-yl}phenyl)ethanone]
21 | 0.1 | Cc1cc(-c2c(C)nc3c(OCc4c(F)cccc4F)cccn23)ccn1 [Example 3, 8-[(2,6-difluorobenzyl)oxy]-2-methyl-3-(2-methylpyridin-4-yl)imidazo[1,2-a]pyridine]
22 | 0.2 | CC(=O)Nc1cccc(-c2c(C)nc3c(OCc4c(F)cccc4F)cccn23)c1 [Example 4, N-(3-{8-[(2,6-difluorobenzyl)oxy]-2-methylimidazo[1,2-a]pyridin-3-yl}phenyl)acetamide]
23 | 0.2 | CCN(C)Cc1cccc(-c2c(C)nc3c(OCc4c(F)cccc4F)cccn23)c1 [Example 5, N-(3-{8-[(2,6-difluorobenzyl)oxy]-2-methylimidazo[1,2-a]pyridin-3-yl}benzyl)-N-methylethanamine]
24 | 0.1 | CCS(=O)(=O)c1cccc(-c2c(C)nc3c(OCc4c(F)cccc4F)cccn23)c1 [Example 6, 8-[(2,6-difluorobenzyl)oxy]-3-[3-(ethylsulphonyl)phenyl]-2-methylimidazo[1,2-a]pyridine]
25 | 0.1 | Cc1nc2c(OCc3c(F)cccc3F)cccn2c1-c1cccc(C(N)=O)c1 [Example 7, 3-{8-[(2,6-difluorobenzyl)oxy]-2-methylimidazo[1,2-a]pyridin-3-yl}benzamide]
26 | 0.1 | Cc1nc2c(OCc3c(F)cccc3F)cccn2c1-c1cccc(O)c1 [Example 8, 3-{8-[(2,6-difluorobenzyl)oxy]-2-methylimidazo[1,2-a]pyridin-3-yl}phenol]
27 | 0.3 | Cc1nc2c(OCc3c(F)cccc3F)cccn2c1-c1cccc(Br)c1 [Example 13, 3-(3-bromophenyl)-8-[(2,6-difluorobenzyl)oxy]-2-methylimidazo[1,2-a]pyridine]
28 | 1.0 | CCOC(=O)c1cccc(-c2c(C)nc3c(OCc4c(F)cccc4F)cccn23)c1 [Example 18, Ethyl 3-{8-[(2,6-difluorobenzyl)oxy]-2-methylimidazo[1,2-a]pyridin-3-yl}benzoate]
29 | 1.0 | Cc1nc2c(OCc3c(F)cccc3F)cccn2c1-c1cccc(OC(F)(F)F)c1 [Example 24, 8-[(2,6-difluorobenzyl)oxy]-2-methyl-3-[3-(trifluormethoxy)phenyl]imidazo[1,2-a]pyridine]
30 | 1.0 | Cc1nc2c(OCc3c(F)cccc3F)cccn2c1-c1ccncc1 [Example 29, 8-[(2,6-difluorobenzyl)oxy]-2-methyl-3-(pyridin-4-yl)imidazo[1,2-a]pyridine]
31 | 3.0 | Cc1ccc(-c2c(C)nc3c(OCc4c(F)cccc4F)cccn23)cc1 [Example 30, 8-[(2,6-difluorobenzyl)oxy]-2-methyl-3-(4-methylphenyl)imidazo[1,2-a]pyridine]
